Experimental data published in ChEMBL document CHEMBL1146813, “Synthesis and antibacterial activity of novel bifunctional macrolides” (2004).
Converted amounts (≈) assume the structure as drawn.

Legend:
Format in all cases: functional
Streptococcus pneumoniae [1] = assay: In vitro antibacterial activity against Streptococcus pneumoniae ATCC 6303 (an erythromycin-susceptible strain)
Staphylococcus aureus [2] = assay: In vitro antibacterial activity against Staphylococcus aureus NCTC 10649 (erythromycin-susceptible strain)
Streptococcus pneumoniae [3] = assay: In vitro antibacterial activity against Streptococcus pneumoniae 5979 (MLSB resistant stain bearing an erm (B) gene)
Haemophilus influenzae = assay: In vitro antibacterial activity against Haemophilus influenzae GYR1435 (fully susceptible strain)
Staphylococcus aureus [4] = assay: In vitro antibacterial activity against Staphylococcus aureus 1775 (methicillin-resistant strain(MRSA))
Streptococcus pneumoniae [5] = assay: In vitro antibacterial activity against Streptococcus pneumoniae 5649 (efflux-resistant strain bearing a mef (E) gene)

SMILES | MIC (Streptococcus pneumoniae [1]) [µg/mL] | MIC (Staphylococcus aureus [2]) [µg/mL] | MIC (Streptococcus pneumoniae [3]) [µg/mL] | MIC (Haemophilus influenzae) [µg/mL] | MIC (Staphylococcus aureus [4]) [µg/mL] | MIC (Streptococcus pneumoniae [5]) [µg/mL]
CC[C@H]1OC(=O)[C@H](C)C(=O)[C@H](C)[C@@H](O[C@@H]2O[C@H](C)C[C@H](N(C)C)[C@H]2O)[C@@](C)(OC)C[C@@H](C)/C(=N\OCCNCCCOCCCNCc2ccc(Oc3ccccc3)cc2)[C@H](C)[C@@H](O)[C@]1(C)O | ≤ 0.008 | 2 (≈ 2.12 µM) | 0.06 (≈ 0.0636 µM) | 2 (≈ 2.12 µM) | 64 (≈ 67.9 µM) | ≤ 0.008
CC[C@H]1OC(=O)[C@H](C)C(=O)[C@H](C)[C@@H](O[C@@H]2O[C@H](C)C[C@H](N(C)C)[C@H]2O)[C@@](C)(OC)C[C@@H](C)C(=O)[C@H](C)[C@@H](O)[C@]1(C)O | 0.06 (≈ 0.102 µM) | 0.5 (≈ 0.851 µM) | > 128 | 64 (≈ 109 µM) | > 128 | 0.12 (≈ 0.204 µM)
CC[C@H]1OC(=O)[C@H](C)C(=O)[C@H](C)[C@@H](O[C@@H]2O[C@H](C)C[C@H](N(C)C)[C@H]2O)[C@@](C)(OC)C[C@@H](C)/C(=N\OCCNCCCCCCNCc2cccc(Oc3ccccc3)c2)[C@H](C)[C@@H](O)[C@]1(C)O | ≤ 0.008 | 2 (≈ 2.16 µM) | 0.12 (≈ 0.129 µM) | 4 (≈ 4.31 µM) | 64 (≈ 69 µM) | 0.5 (≈ 0.539 µM)
CC[C@H]1OC(=O)[C@H](C)C(=O)[C@H](C)[C@@H](O[C@@H]2O[C@H](C)C[C@H](N(C)C)[C@H]2O)[C@@](C)(OC)C[C@@H](C)/C(=N\OCCNCCCCNCc2ccc(Oc3ccccc3)cc2)[C@H](C)[C@@H](O)[C@]1(C)O | 0.015 (≈ 0.0167 µM) | 16 (≈ 17.8 µM) | 0.5 (≈ 0.556 µM) | 16 (≈ 17.8 µM) | 32 (≈ 35.6 µM) | 0.25 (≈ 0.278 µM)
CC[C@H]1OC(=O)[C@H](C)C(=O)[C@H](C)[C@@H](O[C@@H]2O[C@H](C)C[C@H](N(C)C)[C@H]2O)[C@@](C)(OC)C[C@@H](C)/C(=N\OCCNCCCNCc2ccc(Oc3ccccc3)cc2)[C@H](C)[C@@H](O)[C@]1(C)O | 0.12 (≈ 0.136 µM) | 32 (≈ 36.2 µM) | 32 (≈ 36.2 µM) | 13 (≈ 14.7 µM) | 64 (≈ 72.3 µM) | 1 (≈ 1.13 µM)
CC[C@H]1OC(=O)[C@H](C)C(=O)[C@H](C)[C@@H](O[C@@H]2O[C@H](C)C[C@H](N(C)C)[C@H]2O)[C@@](C)(OC)C[C@@H](C)/C(=N\OCCNCCCOCCCCOCCCNCc2ccc3ccccc3c2)[C@H](C)[C@@H](O)[C@]1(C)O | 0.12 (≈ 0.123 µM) | 32 (≈ 32.9 µM) | 1 (≈ 1.03 µM) | 32 (≈ 32.9 µM) | > 128 | 1 (≈ 1.03 µM)
CC[C@H]1OC(=O)[C@H](C)C(=O)[C@H](C)[C@@H](O[C@@H]2O[C@H](C)C[C@H](N(C)C)[C@H]2O)[C@@](C)(OC)C[C@@H](C)/C(=N\OCCNCCCOCCCNCc2cc(Cl)cc(Cl)c2)[C@H](C)[C@@H](O)[C@]1(C)O | ≤ 0.008 | 1 (≈ 1.09 µM) | 4 (≈ 4.35 µM) | 8 (≈ 8.7 µM) | > 128 | 0.015 (≈ 0.0163 µM)
CC[C@H]1OC(=O)[C@H](C)C(=O)[C@H](C)[C@@H](O[C@@H]2O[C@H](C)C[C@H](N(C)C)[C@H]2O)[C@](C)(OCC=Cc2cnc3ccccc3c2)C[C@@H](C)C(=O)[C@H](C)[C@H]2NC(=O)O[C@@]21C [CETHROMYCIN] | ≤ 0.008 | 0.12 (≈ 0.157 µM) | ≤ 0.008 | 0.5 (≈ 0.653 µM) | > 128 | ≤ 0.008
CC[C@H]1OC(=O)[C@H](C)C(=O)[C@H](C)[C@@H](O[C@@H]2O[C@H](C)C[C@H](N(C)C)[C@H]2O)[C@@](C)(OC)C[C@@H](C)/C(=N\OCCNCC2CCC(CNCc3cccc(Oc4ccccc4)c3)CC2)[C@H](C)[C@@H](O)[C@]1(C)O (stereo not given in full) | ≤ 0.008 | 4 (≈ 4.2 µM) | 2 (≈ 2.1 µM) | 8 (≈ 8.39 µM) | 64 (≈ 67.1 µM) | 0.12 (≈ 0.126 µM)
CC[C@H]1OC(=O)[C@H](C)C(=O)[C@H](C)[C@@H](O[C@@H]2O[C@H](C)C[C@H](N(C)C)[C@H]2O)[C@@](C)(OC)C[C@@H](C)/C(=N\OCCNCCCOCCOCCCNc2ccc(Oc3ccccc3)cc2)[C@H](C)[C@@H](O)[C@]1(C)O | 0.12 (≈ 0.123 µM) | 2 (≈ 2.05 µM) | 2 (≈ 2.05 µM) | 64 (≈ 65.8 µM) | 128 (≈ 132 µM) | 1 (≈ 1.03 µM)
CC[C@H]1OC(=O)[C@H](C)C(=O)[C@H](C)[C@@H](O[C@@H]2O[C@H](C)C[C@H](N(C)C)[C@H]2O)[C@@](C)(OC)C[C@@H](C)/C(=N\OCCNCCCOCCCNCc2cn(C)c3ccc(F)cc23)[C@H](C)[C@@H](O)[C@]1(C)O | ≤ 0.008 | 1 (≈ 1.08 µM) | 4 (≈ 4.34 µM) | 8 (≈ 8.68 µM) | 64 (≈ 69.4 µM) | 0.06 (≈ 0.0651 µM)
CC[C@H]1OC(=O)[C@H](C)C(=O)[C@H](C)[C@@H](O[C@@H]2O[C@H](C)C[C@H](N(C)C)[C@H]2O)[C@@](C)(OC)C[C@@H](C)/C(=N\OCCNCCCOCCCNCc2ccc(Cl)c(Cl)c2)[C@H](C)[C@@H](O)[C@]1(C)O | 0.06 (≈ 0.0652 µM) | 2 (≈ 2.17 µM) | 0.25 (≈ 0.272 µM) | 16 (≈ 17.4 µM) | > 128 | 0.5 (≈ 0.543 µM)
CC[C@H]1OC(=O)[C@H](C)C(=O)[C@H](C)[C@@H](O[C@@H]2O[C@H](C)C[C@H](N(C)C)[C@H]2O)[C@@](C)(OC)C[C@@H](C)/C(=N\OCCNCCCCCCNCc2ccc(OC)cc2)[C@H](C)[C@@H](O)[C@]1(C)O | ≤ 0.008 | 1 (≈ 1.16 µM) | 2 (≈ 2.31 µM) | 4 (≈ 4.62 µM) | > 128 | 0.12 (≈ 0.139 µM)
CC[C@H]1OC(=O)[C@H](C)[C@@H](O[C@H]2C[C@@](C)(OC)[C@@H](O)[C@H](C)O2)[C@H](C)[C@@H](O[C@@H]2O[C@H](C)C[C@H](N(C)C)[C@H]2O)[C@](C)(O)C[C@@H](C)C(=O)[C@H](C)[C@@H](O)[C@]1(C)O [ERYTHROMYCIN] | 0.03 (≈ 0.0409 µM) | 0.25 (≈ 0.341 µM) | > 128 | 2 (≈ 2.73 µM) | > 128 | 4 (≈ 5.45 µM)
CC[C@H]1OC(=O)[C@H](C)C(=O)[C@H](C)[C@@H](O[C@@H]2O[C@H](C)C[C@H](N(C)C)[C@H]2O)[C@@](C)(OC)C[C@@H](C)/C(=N\OCCNCC2CCC(CNCc3ccc(Oc4ccccc4)cc3)CC2)[C@H](C)[C@@H](O)[C@]1(C)O (stereo not given in full) | 0.06 (≈ 0.0629 µM) | 4 (≈ 4.2 µM) | 0.06 (≈ 0.0629 µM) | 8 (≈ 8.39 µM) | 32 (≈ 33.6 µM) | 0.12 (≈ 0.126 µM)
CC[C@H]1OC(=O)[C@H](C)C(=O)[C@H](C)[C@@H](O[C@@H]2O[C@H](C)C[C@H](N(C)C)[C@H]2O)[C@](C)(OC)C[C@@H](C)C(=O)[C@H](C)[C@H]2N(CCCCn3cnc(-c4cccnc4)c3)C(=O)O[C@]12C [TELITHROMYCIN] | ≤ 0.008 | 0.06 (≈ 0.0739 µM) | 0.06 (≈ 0.0739 µM) | 2 (≈ 2.46 µM) | > 128 | 0.25 (≈ 0.308 µM)
CC[C@H]1OC(=O)[C@H](C)[C@@H](OC(=O)NCCCOCCCNC(=O)Cc2ccc(OC)cc2)[C@H](C)[C@@H](O[C@@H]2O[C@H](C)C[C@H](N(C)C)[C@H]2O)[C@@](C)(OC)C[C@@H](C)C(=O)[C@H](C)[C@H]2NC(=O)O[C@@]21C | 0.5 (≈ 0.543 µM) | 8 (≈ 8.68 µM) | > 128 | 16 (≈ 17.4 µM) | > 128 | 0.5 (≈ 0.543 µM)
CC[C@H]1OC(=O)[C@H](C)C(=O)[C@H](C)[C@@H](O[C@@H]2O[C@H](C)C[C@H](N(C)C)[C@H]2O)[C@@](C)(OC)C[C@@H](C)/C(=N\OCCNCCCOCCOCCOCCCNc2ccc(Oc3ccccc3)cc2)[C@H](C)[C@@H](O)[C@]1(C)O | 0.25 (≈ 0.246 µM) | 2 (≈ 1.97 µM) | 2 (≈ 1.97 µM) | 32 (≈ 31.5 µM) | 128 (≈ 126 µM) | 1 (≈ 0.983 µM)
CC[C@H]1OC(=O)[C@H](C)C(=O)[C@H](C)[C@@H](O[C@@H]2O[C@H](C)C[C@H](N(C)C)[C@H]2O)[C@@](C)(OC)C[C@@H](C)/C(=N\OCCNCCCOCCCNCc2cnc3ccccc3c2)[C@H](C)[C@@H](O)[C@]1(C)O | 0.06 (≈ 0.0665 µM) | 0.5 (≈ 0.554 µM) | 0.25 (≈ 0.277 µM) | 64 (≈ 70.9 µM) | > 128 | 0.5 (≈ 0.554 µM)
CC[C@H]1OC(=O)[C@H](C)C(=O)[C@H](C)[C@@H](O[C@@H]2O[C@H](C)C[C@H](N(C)C)[C@H]2O)[C@@](C)(OC)C[C@@H](C)/C(=N\OCCNCCCOCCCNCc2ccccc2)[C@H](C)[C@@H](O)[C@]1(C)O | 0.12 (≈ 0.141 µM) | 16 (≈ 18.8 µM) | 1 (≈ 1.17 µM) | 128 (≈ 150 µM) | ≥ 128 | 0.25 (≈ 0.294 µM)
C=CC(C)C(=O)NCCNC(=O)O[C@H]1[C@H](C)[C@@H](O[C@@H]2O[C@H](C)C[C@H](N(C)C)[C@H]2O)[C@@](C)(OC)C[C@@H](C)C(=O)[C@H](C)[C@H]2NC(=O)O[C@]2(C)[C@@H](CC)OC(=O)[C@@H]1C (stereo not given in full) | 0.25 (≈ 0.319 µM) | 64 (≈ 81.7 µM) | > 128 | 128 (≈ 163 µM) | > 128 | –
